In patent US20080091033A1, “Nonsolvate-Form Crystal of Polymethine Compound, Process for Producing the Same and Use Thereof” (YAMAMOTO CHEMICALS, INC., priority 2004, published 2008):
Counter-ions that a name gives are not always drawn.

Assays:
[1] = solution stability test (decomposition percentage from absorbance before and after standing); format: physicochemical; conditions: 5% (w/v) in ethanol/methyl ethyl ketone (1/1 by volume), room temperature, 10 days of standing
Description: A solution stability test was carried out in the following manner.
Each polymethine compound specified below in Table 1 was dissolved in a mixture of ethanol and methyl ethyl ketone (1/1 by volume) to a concentration of 5% (w/v) and the solution was allowed to stand in a room (at room temperature) for 10 days. The absorbance (gram extinction coefficient) of the solution was measured before and after standing, and the decomposition percentage was calculated using the following formula.
Decomposition percentage (%)=[(absorbance just after preparation of solution−absorbance after 10 days of standing)/(absorbance just after preparation of solution)]×100

[2] = solubility in methanol and ethanol; format: physicochemical; conditions: for solubility in ethanol: solvent ethanol; for solubility in methanol: solvent methanol

Row | melting point | Decomposition percentage [1] [%] | solubility in ethanol [2] [%] | solubility in methanol [2] [%] | SMILES
1 | 199 to 200 °C (dec.) |  |  |  | CN1/C(=C\C=C2/CCC(/C=C/C3=[N+](C)c4ccccc4C3(C)C)=C2Cl)C(C)(C)c2ccccc21 (as salt: toluenesulfonate) (hydrate or solvate) [Example 1]
2 | 201 to 203 °C (dec.) |  |  |  | CN1/C(=C\C=C2/CCC(/C=C/C3=[N+](C)c4ccccc4C3(C)C)=C2Cl)C(C)(C)c2ccccc21 (as salt: toluenesulfonate) (hydrate or solvate) [Example 2]
3 | 198 to 199 °C (dec.) |  |  |  | CN1/C(=C\C=C2/CCC(/C=C/C3=[N+](C)c4ccccc4C3(C)C)=C2Cl)C(C)(C)c2ccccc21 (as salt: toluenesulfonate) (hydrate or solvate) [Example 3]
4 |  | 8.1 |  |  | CN1/C(=C\C=C2/CCC(/C=C/C3=[N+](C)c4ccccc4C3(C)C)=C2Cl)C(C)(C)c2ccccc21 [Comparative Example 1, reference compound]
5 |  | 2.0 | ≥ 15 | ≥ 15 | CN1/C(=C\C=C2/CCC(/C=C/C3=[N+](C)c4ccccc4C3(C)C)=C2Cl)C(C)(C)c2ccccc21 [Example 1]
6 |  | 2.1 | ≥ 15 | ≥ 15 | CN1/C(=C\C=C2/CCC(/C=C/C3=[N+](C)c4ccccc4C3(C)C)=C2Cl)C(C)(C)c2ccccc21 [Example 2]
7 |  | 2.2 | ≥ 15 | ≥ 15 | CN1/C(=C\C=C2/CCC(/C=C/C3=[N+](C)c4ccccc4C3(C)C)=C2Cl)C(C)(C)c2ccccc21 [Example 3]
8 |  | 1.9 | ≥ 15 | ≥ 15 | CN1/C(=C\C=C2/CCC(/C=C/C3=[N+](C)c4ccccc4C3(C)C)=C2Cl)C(C)(C)c2ccccc21 [Example 4]
9 |  |  | ≥ 15 | ≥ 15 | CN1/C(=C\C=C2/CCC(/C=C/C3=[N+](C)c4ccccc4C3(C)C)=C2Cl)C(C)(C)c2ccccc21 [Example 5]
